These molecules were tested against human recombinant GPR65 (Homo sapiens, UniProt Q8IYL9) (assay: Human GPR65 cAMP HTRF antagonist assay). Conditions: not given.
Chain of human recombinant GPR65 (Q8IYL9 whole entry): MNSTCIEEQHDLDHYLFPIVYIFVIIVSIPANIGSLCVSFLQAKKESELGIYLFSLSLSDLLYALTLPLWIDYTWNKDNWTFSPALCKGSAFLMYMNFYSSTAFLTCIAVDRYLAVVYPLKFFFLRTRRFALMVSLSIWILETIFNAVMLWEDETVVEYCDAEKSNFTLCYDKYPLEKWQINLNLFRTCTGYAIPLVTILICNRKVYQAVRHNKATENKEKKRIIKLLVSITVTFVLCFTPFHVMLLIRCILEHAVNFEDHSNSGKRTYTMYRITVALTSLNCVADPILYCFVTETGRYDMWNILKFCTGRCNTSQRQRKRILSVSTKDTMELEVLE
Format: cell-based
From the text: In one preferred embodiment, the compound prevents the increase in cytoplasmic cAMP levels expected following GPR65 activation at acidic pH. This prevention of cAMP accumulation in turn prevents downstream signalling through ICER, as described above. The “Human GPR65 cyclic adenosine monophosphate (cAMP) Homogeneous Time Resolved Fluorescence (HTRF) antagonist assay”, or simply “cAMP assay”, as described in the accompanying examples, can be used to measure the potency of GPR65 modulators, which is expressed as the concentration of compound required to reduce the increase in cAMP concentration upon GPR65 activation by 50% (i.e. an IC50).
Human GPR65 Cyclic Adenosine Monophosphate (cAMP) Homogeneous Time Resolved Fluorescence (HTRF) Antagonist Assay Procedure
IC50 data was obtained by the following procedure:
1321N1 human astrocytoma cells stably expressing human recombinant GPR65 (1321N1-hrGPR65 cells, EuroscreenFast) were cultured according to the vendor's instructions. Compounds were tested for their ability to antagonise GPR65, through measuring the concentration of cytoplasmic cAMP following treatment of the cells at a pH of 7.2 to activate GPR65 signalling and addition of the compound to be tested. The extent to which the expected rise in cAMP concentration upon GPR65 activation was suppressed by the added compound is indicative of its potency. The assay was carried out according to EuroscreenFast assay Methodology as follows.
On the day of the assay, test compounds were added to 384-well, low volume, white microtiter plates by acoustic dispensing. KRH buffer (5 mM KCl, 1.25 mM MgSO4, 124 mM NaCl, 25 mM HEPES, 13.3 mM Glucose, 1.25 mM KH2PO4 and 1.45 mM CaCl2) was adjusted to pH 6.5, pH 7.6 and pH 8.4 by adding NaOH. 1321N1-hGPR65 cells were rapidly thawed and diluted in KRH, pH 7.6 prior to centrifugation at 300×g for 5 min and resuspension in assay buffer (KRH, pH 7.6, supplemented with 1 mM 3-isobutyl-1-methylxanthine (IBMX) and 200 μM ethylenediaminetetraacetic acid (EDTA)). Cells were added to assay plates at a density of 2,000 cells per well in a volume of 5 μl. Assay plates were briefly centrifuged at 100×g and then incubated at room temperature for 30 min. Cells were stimulated by the addition of 5 μL KRH, pH 6.5, to achieve an assay pH of 7.2, while control wells received 5 μl KRH, pH 8.4 to achieve an assay pH of 7.9. Assay plates were briefly centrifuged at 100×g and then incubated at room temperature for 30 min.
Accumulation of cAMP was detected by cAMP HTRF kit (Cisbio). d2-labeled cAMP and cryptate-labeled anti-cAMP antibody in Lysis and Detection Buffer (Cisbio) were added to assay plates, and the plates were incubated at room temperature for 1 h. HTRF measurements were performed using a Pherastar FSX instrument. Acceptor and donor emission signals were measured at 665 nm and 620 nm, respectively, and HTRF ratios were calculated as signal665 nm/signal620 nm×10^4. Data were normalised to high and low control values and fitted with 4-parameter logistic regression to determine hGPR65 IC50 values for the test compounds, which are shown in Table 1.
For O=C1NN=C2C(=CC3CCC2N3C(=O)Nc2cc(Cl)c(C(F)(F)F)cc2F)N1 (racemic) [Compound 1, (±)-N-(5-Chloro-2-fluoro-4-(trifluoromethyl)phenyl)-3-oxo-3,4,6,7,8,9-hexahydro-2H-6,9-epiminocyclohepta[e][1,2,4]triazine-10-carboxamide], the IC50 was < 500 nM.
With O=C1NN=C2C(=CC3CCC2N3C(=O)Nc2cc(Cl)c(-c3cncc(F)c3)cc2F)N1 (racemic) [Compound 2, (±)-N-(5-Chloro-2-fluoro-4-(5-fluoropyridin-3-yl)phenyl)-3-oxo-3,4,6,7,8,9-hexahydro-2H-6,9-epiminocyclohepta[e][1,2,4]triazine-10-carboxamide] the IC50 was < 500 nM.
In the case of O=C1NN=C2C(=CC3CCC2N3C(=O)Nc2cc(Cl)c(-c3ccc(F)nc3)cc2F)N1 (racemic) [Compound 3, (±)-N-(5-chloro-2-fluoro-4-(6-fluoropyridin-3-yl)phenyl)-3-oxo-3,4,6,7,8,9-hexahydro-2H-6,9-epiminocyclohepta[e][1,2,4]triazine-10-carboxamide], the IC50 is reported as < 500 nM.
In the case of O=C1NN=C2C(=CC3CCC2N3C(=O)Nc2cc(Cl)c(-c3ccc4nonc4c3)cc2F)N1 (racemic) [Compound 4, (±)-N-(4-(benzo[c][1,2,5]oxadiazol-5-yl)-5-chloro-2-fluorophenyl)-3-oxo-3,4,6,7,8,9-hexahydro-2H-6,9-epiminocyclohepta[e][1,2,4]triazine-10-carboxamide], the IC50 is reported as < 500 nM.
With O=C(Nc1cc(Cl)c(C(F)(F)F)cc1F)N1[C@@H]2C=C3NC(=S)NN=C3[C@H]1CC2 [Compound 7, (6S,9R)-N-(5-Chloro-2-fluoro-4-(trifluoromethyl)phenyl)-3-thioxo-3,4,6,7,8,9-hexahydro-2H-6,9-epiminocyclohepta[e][1,2,4]triazine-10-carboxamide] the IC50 was < 500 nM.
In the case of O=C1NN=C2C(=C[C@@H]3CC[C@H]2N3C(=O)Nc2cc(Cl)c(C(F)(F)F)cc2F)N1 [Compound 8, (6S,9R)-N-(5-Chloro-2-fluoro-4-(trifluoromethyl)phenyl)-3-oxo-3,4,6,7,8,9-hexahydro-2H-6,9-epiminocyclohepta[e][1,2,4]triazine-10-carboxamide], the IC50 is reported as < 500 nM.
In the case of CC(C)Oc1ccc(-c2cc(F)c(NC(=O)N3[C@@H]4C=C5NC(=O)NN=C5[C@H]3CC4)cc2Cl)cn1 [Compound 10, (6S,9R)-N-(5-Chloro-2-fluoro-4-(6-isopropoxypyridin-3-yl)phenyl)-3-oxo-3,4,6,7,8,9-hexahydro-2H-6,9-epiminocyclohepta[e][1,2,4]triazine-10-carboxamide], the IC50 is reported as < 500 nM.
For O=C1NN=C2C(=C[C@@H]3CC[C@H]2N3C(=O)Nc2cc(Cl)c(-c3ccc(OCC(F)(F)F)nc3)cc2F)N1 [Compound 11, (6S,9R)-N-(5-Chloro-2-fluoro-4-(6-(2,2,2-trifluoroethoxy)pyridine-3-yl)phenyl)-3-oxo-3,4,6,7,8,9-hexahydro-2H-6,9-epiminocyclohepta[e][1,2,4]triazine-10-carboxamide], the IC50 was < 500 nM.
In the case of O=C1NN=C2C(=C[C@@H]3CC[C@H]2N3C(=O)Nc2cc(Cl)c(-c3ccc4nonc4c3)cc2F)N1 [Compound 13, (6S,9R)-N-(4-(Benzo[c][1,2,5]oxadiazol-5-yl)-5-chloro-2-fluorophenyl)-3-oxo-3,4,6,7,8,9-hexahydro-2H-6,9-epiminocyclohepta[e][1,2,4]triazine-10-carboxamide], the IC50 is reported as < 500 nM.

Same assay, conditions: 1321N1-hrGPR65 cells, assay pH 7.2, suppression of cAMP rise, HTRF; read-out: hGPR65 IC50 (activity class)
In the case of O=C1NN=C2C(=CC3CCC2N3C(=O)Nc2cc(C(F)(F)F)on2)N1 (racemic) [Compound 5, (±)-3-Oxo-N-(5-(trifluoromethyl)isoxazol-3-yl)-3,4,6,7,8,9-hexahydro-2H-6,9-epiminocyclohepta[e][1,2,4]triazine-10-carboxamide], the IC50 is reported as 500 to 5000 nM.
In the case of CS(=O)(=O)c1nnc2c(n1)CC1CCC2N1C(=O)Nc1cc(Cl)c(C(F)(F)F)cc1F (racemic) [Compound 6, (±)-N-(5-Chloro-2-fluoro-4-(trifluoromethyl)phenyl)-3-(methylsulfonyl)-6,7,8,9-tetrahydro-5H-6,9-epiminocyclohepta[e][1,2,4]triazine-10-carboxamide], the IC50 is reported as 500 to 5000 nM.
Molecule O=C1NN=C2C(=C[C@H]3CC[C@@H]2N3C(=O)Nc2cc(Cl)c(C(F)(F)F)cc2F)N1 [Compound 9, (6R,9S)-N-(5-Chloro-2-fluoro-4-(trifluoromethyl)phenyl)-3-oxo-3,4,6,7,8,9-hexahydro-2H-6,9-epiminocyclohepta[e][1,2,4]triazine-10-carboxamide] has an IC50 of 500 to 5000 nM.
O=C1NN=C2C(=C[C@H]3CC[C@@H]2N3C(=O)Nc2cc(Cl)c(-c3ccc4nonc4c3)cc2F)N1 [Compound 12, (6R,9S)-N-(4-(Benzo[c][1,2,5]oxadiazol-5-yl)-5-chloro-2-fluorophenyl)-3-oxo-3,4,6,7,8,9-hexahydro-2H-6,9-epiminocyclohepta[e][1,2,4]triazine-10-carboxamide] gave an IC50 of 500 to 5000 nM.
